Activity calls are given as the source filed them.
Legend:
[1] = target: T1, Alkaline phosphatase, tissue-nonspecific isozyme (Homo sapiens, UniProt P05186); assay: TNAP enzyme activators, dose response, selectivity assay for human IAP activator project, biochemical, TNAP isozyme, human IAP uHTS hits (AID 488886); type: functional;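 note: potency of compounds raising TNAP activity as a selectivity check on IAP activators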
T1 sequence (P05186 whole entry): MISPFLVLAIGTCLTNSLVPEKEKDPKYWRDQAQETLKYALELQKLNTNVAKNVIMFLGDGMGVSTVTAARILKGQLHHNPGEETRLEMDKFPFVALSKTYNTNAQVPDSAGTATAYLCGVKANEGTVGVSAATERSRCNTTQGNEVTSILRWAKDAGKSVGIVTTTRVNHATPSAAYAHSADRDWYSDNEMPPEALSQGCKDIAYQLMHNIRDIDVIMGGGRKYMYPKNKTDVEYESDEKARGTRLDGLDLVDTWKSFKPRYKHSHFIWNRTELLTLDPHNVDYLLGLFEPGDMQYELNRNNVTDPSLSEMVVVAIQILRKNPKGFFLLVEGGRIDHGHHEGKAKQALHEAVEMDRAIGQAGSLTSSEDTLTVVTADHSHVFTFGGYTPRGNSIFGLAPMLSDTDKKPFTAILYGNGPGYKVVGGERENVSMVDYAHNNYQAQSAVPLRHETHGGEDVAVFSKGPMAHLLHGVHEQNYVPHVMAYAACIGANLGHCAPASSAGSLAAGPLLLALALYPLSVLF

[2] = target: T2, Intestinal-type alkaline phosphatase (Homo sapiens, UniProt P09923); assay: human intestinal alkaline phosphatase activators, dose response, biochemical, luminescence, uHTS hits (AID 463120); type: functional
T2 sequence (P09923 whole entry): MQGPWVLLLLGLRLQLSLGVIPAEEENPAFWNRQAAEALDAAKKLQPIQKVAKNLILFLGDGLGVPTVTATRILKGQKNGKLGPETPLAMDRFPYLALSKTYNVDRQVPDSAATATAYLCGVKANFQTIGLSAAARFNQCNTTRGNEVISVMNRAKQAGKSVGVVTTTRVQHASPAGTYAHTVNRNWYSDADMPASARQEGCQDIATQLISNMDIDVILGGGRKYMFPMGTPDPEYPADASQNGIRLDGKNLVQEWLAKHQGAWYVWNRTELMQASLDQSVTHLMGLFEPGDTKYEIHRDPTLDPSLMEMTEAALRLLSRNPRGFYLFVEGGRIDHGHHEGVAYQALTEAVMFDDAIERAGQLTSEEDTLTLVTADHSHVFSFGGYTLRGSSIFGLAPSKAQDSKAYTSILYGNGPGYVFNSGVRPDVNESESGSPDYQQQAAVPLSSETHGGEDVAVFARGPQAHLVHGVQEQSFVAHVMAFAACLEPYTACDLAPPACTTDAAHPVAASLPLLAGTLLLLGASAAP

[3] = target: T2, Intestinal-type alkaline phosphatase; assay: human IAP activators, dose response, biochemical, luminescent, uHTS hits, set 2 (AID 488817); type: functional;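 note: potency of activators that raise enzyme activity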
[4] = target: Intestinal-type alkaline phosphatase (Mus musculus, UniProt P24822); assay: PubChem AID 488875; type: functional
Chain of Intestinal-type alkaline phosphatase (Mus musculus, UniProt P24822) (P24822 whole entry): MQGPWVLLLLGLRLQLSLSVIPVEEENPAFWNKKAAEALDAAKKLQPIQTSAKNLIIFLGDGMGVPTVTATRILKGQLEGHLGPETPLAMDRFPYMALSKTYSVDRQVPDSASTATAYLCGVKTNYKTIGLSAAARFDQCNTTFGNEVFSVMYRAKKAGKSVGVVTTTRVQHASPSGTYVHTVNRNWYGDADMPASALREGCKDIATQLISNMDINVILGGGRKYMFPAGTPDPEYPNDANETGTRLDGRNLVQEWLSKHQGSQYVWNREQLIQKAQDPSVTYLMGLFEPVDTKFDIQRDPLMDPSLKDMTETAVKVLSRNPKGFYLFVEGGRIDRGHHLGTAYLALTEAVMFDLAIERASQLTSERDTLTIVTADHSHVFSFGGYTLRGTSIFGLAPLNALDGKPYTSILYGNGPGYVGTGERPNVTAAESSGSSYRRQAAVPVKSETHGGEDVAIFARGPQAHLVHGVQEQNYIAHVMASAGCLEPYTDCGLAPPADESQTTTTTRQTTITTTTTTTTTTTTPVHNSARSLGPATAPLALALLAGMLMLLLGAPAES

[5] = tested on: INS1; assay: beta cell apoptosis inhibitors, cytokine rescue, dose response, luminescence, retest (AID 449756); type: functional, cell-based; details: Rattus norvegicus;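 note: cell death triggered by IL-1 beta plus TNF-alpha plus IFN-gamma mixture; protective hits raise ATP signal compared with cytokine alone wells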
[6] = target: SUMO E1/E2 (Homo sapiens, UniProt P63279+Q9UBE0+Q9UBT2); assay: SAR analysis of SUMOylation using HTRF in an in-Vitro dose response assay. [Related pubchem assays (depositor defined):AID2006, AID2011, AID2018, AID2069, AID2658]; type: functional
[7] = target: T3, Voltage-gated N-type calcium channel alpha-1B subunit/Amyloid beta A4 precursor protein-binding family A member 1 (Homo sapiens, UniProt Q00975+Q02410); assay: disruptors of Mint-PDZ/N-type channel peptide interaction – biochemical, HTRF, set 2, SAR follow-up (AID 434980); type: functional
T3 sequence (Q00975 whole entry): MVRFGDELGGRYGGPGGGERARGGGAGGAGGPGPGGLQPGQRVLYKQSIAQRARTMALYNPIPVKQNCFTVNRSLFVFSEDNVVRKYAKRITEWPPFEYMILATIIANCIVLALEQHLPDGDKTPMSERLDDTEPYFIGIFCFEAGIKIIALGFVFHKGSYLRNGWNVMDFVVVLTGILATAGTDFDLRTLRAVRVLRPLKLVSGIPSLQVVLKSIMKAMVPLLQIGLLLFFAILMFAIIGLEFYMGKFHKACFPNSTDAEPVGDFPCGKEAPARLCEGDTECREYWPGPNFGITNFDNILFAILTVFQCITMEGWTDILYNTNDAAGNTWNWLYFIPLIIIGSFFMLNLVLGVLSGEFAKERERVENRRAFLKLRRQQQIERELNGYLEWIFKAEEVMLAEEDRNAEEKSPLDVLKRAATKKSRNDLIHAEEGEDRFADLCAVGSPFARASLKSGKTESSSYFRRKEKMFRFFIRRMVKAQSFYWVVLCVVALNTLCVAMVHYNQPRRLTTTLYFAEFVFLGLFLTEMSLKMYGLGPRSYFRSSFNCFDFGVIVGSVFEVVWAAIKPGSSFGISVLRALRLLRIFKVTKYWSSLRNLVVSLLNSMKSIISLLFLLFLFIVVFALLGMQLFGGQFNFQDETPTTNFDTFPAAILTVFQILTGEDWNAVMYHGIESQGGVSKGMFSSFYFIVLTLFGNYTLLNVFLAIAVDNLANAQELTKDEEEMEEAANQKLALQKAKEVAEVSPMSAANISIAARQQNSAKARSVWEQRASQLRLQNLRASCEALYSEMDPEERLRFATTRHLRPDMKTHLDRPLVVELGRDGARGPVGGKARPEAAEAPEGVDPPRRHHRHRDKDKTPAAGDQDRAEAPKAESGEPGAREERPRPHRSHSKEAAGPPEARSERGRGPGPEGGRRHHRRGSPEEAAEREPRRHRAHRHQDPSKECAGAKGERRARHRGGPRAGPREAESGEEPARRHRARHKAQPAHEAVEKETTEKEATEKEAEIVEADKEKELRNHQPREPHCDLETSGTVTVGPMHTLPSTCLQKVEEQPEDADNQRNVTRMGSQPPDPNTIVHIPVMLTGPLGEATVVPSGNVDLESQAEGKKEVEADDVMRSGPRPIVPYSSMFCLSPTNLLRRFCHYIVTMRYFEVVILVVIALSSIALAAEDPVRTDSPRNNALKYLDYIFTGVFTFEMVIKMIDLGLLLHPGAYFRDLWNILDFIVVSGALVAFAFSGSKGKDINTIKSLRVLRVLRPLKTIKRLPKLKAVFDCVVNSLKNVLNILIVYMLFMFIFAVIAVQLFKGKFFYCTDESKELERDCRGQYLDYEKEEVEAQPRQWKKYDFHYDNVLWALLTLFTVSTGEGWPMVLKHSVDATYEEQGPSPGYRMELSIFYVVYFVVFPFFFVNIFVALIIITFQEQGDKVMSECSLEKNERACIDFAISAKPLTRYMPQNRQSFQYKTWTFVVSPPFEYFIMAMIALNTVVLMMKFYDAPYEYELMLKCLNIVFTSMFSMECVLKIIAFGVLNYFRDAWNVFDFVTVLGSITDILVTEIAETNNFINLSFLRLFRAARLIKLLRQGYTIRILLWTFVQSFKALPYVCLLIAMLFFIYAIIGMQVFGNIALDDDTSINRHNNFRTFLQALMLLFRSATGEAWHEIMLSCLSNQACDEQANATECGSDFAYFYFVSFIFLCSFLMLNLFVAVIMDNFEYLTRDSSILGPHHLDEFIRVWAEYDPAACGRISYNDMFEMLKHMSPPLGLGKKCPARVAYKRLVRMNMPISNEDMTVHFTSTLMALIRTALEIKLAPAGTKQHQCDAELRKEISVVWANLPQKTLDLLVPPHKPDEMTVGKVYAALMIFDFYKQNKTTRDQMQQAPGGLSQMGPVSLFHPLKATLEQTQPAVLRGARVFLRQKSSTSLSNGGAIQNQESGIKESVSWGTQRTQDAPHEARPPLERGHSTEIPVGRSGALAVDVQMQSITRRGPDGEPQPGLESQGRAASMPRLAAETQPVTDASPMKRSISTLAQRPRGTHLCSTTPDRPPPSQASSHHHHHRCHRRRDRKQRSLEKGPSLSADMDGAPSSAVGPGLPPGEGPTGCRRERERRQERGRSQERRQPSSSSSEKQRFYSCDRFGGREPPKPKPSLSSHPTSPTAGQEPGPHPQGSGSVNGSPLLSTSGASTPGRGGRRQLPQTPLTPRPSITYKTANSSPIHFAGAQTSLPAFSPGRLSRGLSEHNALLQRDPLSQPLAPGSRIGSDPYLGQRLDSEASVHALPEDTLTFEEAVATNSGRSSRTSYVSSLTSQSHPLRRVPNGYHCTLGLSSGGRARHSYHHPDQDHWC
T3 sequence (Q02410 whole entry): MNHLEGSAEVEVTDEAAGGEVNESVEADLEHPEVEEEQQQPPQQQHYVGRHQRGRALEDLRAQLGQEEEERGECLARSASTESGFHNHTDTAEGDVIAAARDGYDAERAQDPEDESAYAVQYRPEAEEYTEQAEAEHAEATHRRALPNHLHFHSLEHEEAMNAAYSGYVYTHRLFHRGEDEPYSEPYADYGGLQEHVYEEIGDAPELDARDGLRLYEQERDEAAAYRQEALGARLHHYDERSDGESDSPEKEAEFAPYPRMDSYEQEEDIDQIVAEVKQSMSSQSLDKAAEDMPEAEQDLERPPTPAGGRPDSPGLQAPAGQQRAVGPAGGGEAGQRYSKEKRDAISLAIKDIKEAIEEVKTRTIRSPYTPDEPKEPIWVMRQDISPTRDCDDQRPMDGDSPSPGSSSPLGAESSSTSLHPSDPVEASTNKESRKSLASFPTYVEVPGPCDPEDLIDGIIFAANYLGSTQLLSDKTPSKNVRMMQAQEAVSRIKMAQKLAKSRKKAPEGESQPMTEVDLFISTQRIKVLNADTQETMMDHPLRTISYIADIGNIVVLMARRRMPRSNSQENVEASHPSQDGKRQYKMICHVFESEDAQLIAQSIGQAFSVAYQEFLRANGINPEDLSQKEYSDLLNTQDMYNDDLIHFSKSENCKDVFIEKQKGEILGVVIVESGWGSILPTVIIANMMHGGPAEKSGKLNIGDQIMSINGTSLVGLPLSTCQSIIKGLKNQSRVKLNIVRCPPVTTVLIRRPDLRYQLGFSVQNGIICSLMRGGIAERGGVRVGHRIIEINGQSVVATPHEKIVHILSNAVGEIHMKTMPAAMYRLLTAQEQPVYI

[8] = target: T3, Voltage-gated N-type calcium channel alpha-1B subunit/Amyloid beta A4 precursor protein-binding family A member 1; assay: disruptors of Mint-PDZ/N-type channel peptide interaction – biochemical, HTRF, SAR follow-up (AID 2489); type: functional
[9] = target: Ras and Rab interactor 1/Tyrosine-protein kinase ABL1 (Homo sapiens, UniProt P00519+Q13671); type: functional;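 note: biochemical TR-FRET dose-response test measuring inhibition of binding between Rin1 and Abl proteins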
[10] = target: Lysine-specific demethylase 4A (Homo sapiens, UniProt O75164); assay: JMJD2A histone demethylase inhibitors, dose response, selectivity assay for GASC-1 inhibitor project, biochemical, DELFIA europium, cherry-picked samples (AID 488840)

Cc1ccc(O)c(/C=N/NC(=O)c2[nH]ncc2Br)c1
EC50 [1]: 49.6 µM (active) | EC50 [2]: 7.61 µM (active) | EC50 [3]: 47.6 µM (active) | EC50 [4]: > 100 µM (inactive) | AC50 [5]: 33.5 µM (active)

COc1ccc(CNC(=O)COC(=O)c2cc(-c3ccco3)nc3ccccc23)cc1OC
IC50 [6]: 6.04 µM (active) | IC50 [7]: 5.49 µM (active) | IC50 [8]: > 56.8 µM (inactive)

CN(C(=O)c1ccc(NC(=O)Cc2ccc(NC(=O)C3CCN(C(=O)C4CC4)CC3)cc2)cc1)C1CC1
IC50 [9]: 9.39 µM (active) | AC50 [10]: 17.8 µM (active)
